Laboratory results: patent US8993757B2, “N-piperidin-4-yl derivatives” (Merck Sharp & Dohme B.V., priority 2011, dated 2015)

molecular target: T1, human FSH receptor (Homo sapiens, UniProt P23945); assay: Antagonistic activity at the human FSH receptor expressed in CHO cells (CRE-luciferase reporter); format: cell-based; settings: CHO cells stably transfected with human FSH receptor and CRE/firefly luciferase reporter; 4 hours incubation; read-out: pIC50 (negative logarithm of the IC50 value) (converted)
T1 construct: expressed in transfected cells; host or cells: CHO cells, cotransfected with a CRE/promotor firefly luciferase reporter
T1 sequence (P23945 18-695): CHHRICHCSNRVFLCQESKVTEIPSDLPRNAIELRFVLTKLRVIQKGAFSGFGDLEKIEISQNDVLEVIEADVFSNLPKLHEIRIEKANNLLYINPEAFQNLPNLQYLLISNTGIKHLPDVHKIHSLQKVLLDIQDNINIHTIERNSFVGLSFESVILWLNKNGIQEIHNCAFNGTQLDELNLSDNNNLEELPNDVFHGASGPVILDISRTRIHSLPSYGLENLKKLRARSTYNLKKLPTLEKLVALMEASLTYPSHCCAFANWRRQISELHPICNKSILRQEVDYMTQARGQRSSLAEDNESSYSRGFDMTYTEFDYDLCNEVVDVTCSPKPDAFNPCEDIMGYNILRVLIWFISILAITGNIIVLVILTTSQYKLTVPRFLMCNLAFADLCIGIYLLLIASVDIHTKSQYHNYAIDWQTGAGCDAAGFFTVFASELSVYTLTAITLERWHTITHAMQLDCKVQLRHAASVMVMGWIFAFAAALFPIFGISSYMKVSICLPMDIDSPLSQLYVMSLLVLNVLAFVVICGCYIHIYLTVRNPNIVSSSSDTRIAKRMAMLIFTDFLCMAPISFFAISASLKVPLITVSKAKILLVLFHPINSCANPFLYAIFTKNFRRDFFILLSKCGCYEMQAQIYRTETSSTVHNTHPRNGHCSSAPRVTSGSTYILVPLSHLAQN
Procedure: The FSHR antagonists of the invention have pIC50 values higher than 6 in said assay. The preferred compounds of the invention have pIC50 values higher than 8.
Antagonistic activity of the compounds at the human FSH receptor was determined in Chinese Hamster Ovary (CHO) cells stably transfected with the human FSH receptor and cotransfected with a cAMP responsive element (CRE)/promotor directing the expression of a firefly luciferase reporter gene. […] The cells (7,500 cells/well of a 384 well plate) were incubated in Dulbecco′ minimal essential F12 modified medium (Invitrogen), supplemented with 1 μg/ml bovine insulin, 5 μg/ml human apo-transferrin, 100 U/ml penicillin G and 100 μg/ml streptomycin with the test compounds (concentration between 0.316 nM and 10.0 μM) in duplicate together with […] (which, at this concentration in the absence of test compound, induces 80% of the maximal luciferase stimulation) in a humidified atmosphere (95%) at 5-7% CO2 and 37° C. The final concentration of DMSO was 1%. After 4 hours of incubation, plates were allowed to adjust to room temperature for 1 hour. Then, SteadyLite (Perkin Elmer) solution was added to the wells and cells were allowed to lyse for at least 1 hour at room temperature. Subsequently, luciferase activity was measured in a luminescence counter. The signal is expressed as counts per second (cps). The IC50 (concentration of test compound causing half-maximal (50%) inhibition of the maximally attainable inhibition of the luciferase stimulation by the compound) and efficacy of the compounds were determined using the software program MathIQ (version 2.3, ID Business Solutions Limited).

Row | IC50 [µM] | SMILES
1 | 0.01 to 0.1 | COc1cc(OCc2ccccc2)cc(C(=O)NCC2CCN(c3ccnc(-c4cccc(-n5cccn5)c4)n3)CC2)c1 [Example 11, N-((1-(2-(3-(1H-pyrazol-1-yl)phenyl)pyrimidin-4-yl)piperidin-4-yl)methyl)-3-(benzoxy)-5-methoxybenzamide]
2 | 0.01 to 0.1 | COc1cc(OCc2ccccc2)cc(C(=O)NCC2CCN(c3ncnc(-c4cccc(-c5ccccn5)c4)n3)CC2)c1 [Example 12B, 3-(benzoxy)-5-methoxy-N-((1-(4-(3-(pyridin-2-yl)phenyl)-1,3,5-triazin-2-yl)piperidin-4-yl)methyl)benzamide]
3 | 0.01 to 0.1 | COc1cc(OCc2ccc(F)cc2)cc(C(=O)NCC2CCN(c3ccnc(-c4cccc(-n5cccn5)c4)n3)CC2)c1 [Example 14, N-((1-(2-(3-(1H-pyrazol-1-yl)phenyl)pyrimidin-4-yl)piperidin-4-yl)methyl)-3-(4-fluorobenzoxy)-5-methoxybenzamide]
4 | < 0.01 | COc1cc(OCC2CC2)cc(C(=O)NCC2CCN(c3ccnc(-c4cccc(-n5cccn5)c4)n3)CC2)c1 [Example 15A, N-((1-(2-(3-(1H-pyrazol-1-yl)phenyl)pyrimidin-4-yl)piperidin-4-yl)methyl)-3-(cyclopropylmethoxy)-5-methoxybenzamide]
5 | < 0.01 | COc1cc(OCc2cc(C)on2)cc(C(=O)NCC2CCN(c3ccnc(-c4cccc(-n5cccn5)c4)n3)CC2)c1 [Example 15B, N-((1-(2-(3-(1H-pyrazol-1-yl)phenyl)pyrimidin-4-yl)piperidin-4-yl)methyl)-3-methoxy-5-((5-methylisoxazol-3-yl)methoxy)benzamide]
6 | 0.01 to 0.1 | COc1cc(OCCCO)cc(C(=O)NCC2CCN(c3ccnc(-c4cccc(-n5cccn5)c4)n3)CC2)c1 [Example 15C, N-((1-(2-(3-(1H-pyrazol-1-yl)phenyl)pyrimidin-4-yl)piperidin-4-yl)methyl)-3-(3-hydroxypropoxy)-5-methoxybenzamide]
7 | 0.01 to 0.1 | COCCOc1cc(OC)cc(C(=O)NCC2CCN(c3ccnc(-c4cccc(-n5cccn5)c4)n3)CC2)c1 [Example 15D, N-((1-(2-(3-(1H-pyrazol-1-yl)phenyl)pyrimidin-4-yl)piperidin-4-yl)methyl)-3-methoxy-5-(2-methoxyethoxy)benzamide]
8 | < 0.01 | COc1cc(OCC2CC2)cc(C(=O)NCC2CCN(c3ncnc(-c4cccc(-n5cccn5)c4)n3)CC2)c1 [Example 17A, N-((1-(4-(3-(1H-pyrazol-1-yl)phenyl)-1,3,5-triazin-2-yl)piperidin-4-yl)methyl)-3-(cyclopropylmethoxy)-5-methoxybenzamide]
9 | 0.01 to 0.1 | COc1cc(OCC2CCOCC2)cc(C(=O)NCC2CCN(c3ncnc(-c4cccc(-n5cccn5)c4)n3)CC2)c1 [Example 17B, N-((1-(4-(3-(1H-pyrazol-1-yl)phenyl)-1,3,5-triazin-2-yl)piperidin-4-yl)methyl)-3-methoxy-5-((tetrahydro-2H-pyran-4-yl)methoxy)benzamide]
10 | 0.01 to 0.1 | COc1cc(OCc2ccoc2)cc(C(=O)NCC2CCN(c3ncnc(-c4cccc(-n5cccn5)c4)n3)CC2)c1 [Example 17C]
11 | 0.01 to 0.1 | CNC(=O)COc1cc(OC)cc(C(=O)NCC2CCN(c3ncnc(-c4cccc(-n5cccn5)c4)n3)CC2)c1 [Example 17D, N-((1-(4-(3-(1H-pyrazol-1-yl)phenyl)-1,3,5-triazin-2-yl)piperidin-4-yl)methyl)-3-methoxy-5-(2-(methylamino)-2-oxoethoxy)benzamide]
12 | 0.01 to 0.1 | COc1cc(OC)cc(C(=O)NCC2CCN(c3ccnc(-c4cccc(-c5ccn[nH]5)c4)n3)CC2)c1 [Example 18, N-((1-(2-(3-(1H-pyrazol-5-yl)phenyl)pyrimidin-4-yl)piperidin-4-yl)methyl)-3,5-dimethoxybenzamide]
13 | 0.01 to 0.1 | COc1cc(OCC2CC2)cc(C(=O)NCC2CCN(c3nc(-c4cccc(C#N)c4)ncc3F)CC2)c1 [Example 19B, N-((1-(2-(3-cyanophenyl)-5-fluoropyrimidin-4-yl)piperidin-4-yl)methyl)-3-(cyclopropylmethoxy)-5-methoxybenzamide]
